Key:
[1] = tested on: M. furfur; assay: Effect of P18 variants (CFU); type: cell-based, Malassezia furfur; settings: 50 μM peptide, with DMSO; 24 h
Experimental: The studies described hereinafter were conducted on the Malassezia furfur strain DSM 6170.
The inhibitory effect of the following P18 variants on M. furfur was studied:
The growth test was effected as follows: a shake culture containing M472 Pityrosporum medium was inoculated with M. furfur and incubated with shaking at 30° C. and 200 rpm overnight.
A 96-well microtiter plate was filled with 100 μl per well of M472 Pityrosporum medium and inoculated with M. furfur suspension from the overnight culture. The M. furfur suspension was adjusted at the start of the experiment to an optical density, measured at 600 nm, of 0.1.
The peptide variants were dissolved with a final concentration of 1 mM in dimethyl sulfoxide (DMSO). It is also possible to dispense with DMSO and to use a purely aqueous peptide solution. 5 μl of this solution were added to 100 μl of M. furfur suspension (final concentration of the P18 peptide 50 μM). In a control mixture, the same amount of DMSO without P18 peptide was added.
The microtiter plate was incubated with shaking at 30°.
After 24 h, the colony forming units (CFU) were determined by streaking 10 μl of each of the suspensions and, after incubation over the course of 6 days, counting the colonies. Two independent experiments each with three identical mixtures were conducted, and the number of colony forming units was averaged.

[2] = tested on: Malassezia furfur; assay: Effect of P18 in the presence of nonionic and zwitterionic surfactants (CFU); type: cell-based; settings: 24 hours
Experimental: The aim of the experiment was to study the effect of nonionic and zwitterionic surfactants on the activity of P18 peptide (P18 sequence […]). For this purpose, the following surfactants were used: Pluracare F 68 (a polyoxyethylene-polyoxypropylene-polyoxyethylene block copolymer) Plantacare 818 (a glucoside) Tego Betain L7 (cocamidopropyl betaine) The growth test was effected as follows: a shake culture containing […]. furfur and incubated with shaking at 30° C. and 200 rpm overnight. […] The concentrations of the detergent solutions were adjusted such that the final concentration of the particular detergent in the mixture was 2%; 4% or 6%. The concentrations of the P18 peptide solutions were adjusted such that the final concentration of the P18 peptide in the mixture was 0 μM; 50 μM; 100 μM; 250 μM; or 500 μM. The microtiter plate was incubated with shaking at 30° C. […] The CFU was determined in order to rule out any influence of the biphasic medium, and also the growth form of M. furfur, on the optical density. The experiments were each conducted in triplicate determination at least in two independent experiments.

[3] = tested on: Malassezia furfur (DSM 6170); type: cell-based; settings: DSM 6170, 72 h
Experimental: Minimum inhibitory concentration of peptide P18 (P18 sequence H-KWKLFKKIPKFLHLAKKF-NH2 (Bachem AG, Switzerland)) based on Malassezia furfur (DSM 6170)
Growth medium M472 Pityrosporum medium according to DSMZ:
40 g of malt extract (Becton, Dickinson and Company, Sparks, USA) 20 g of ox bile (Merck, Darmstadt, Germany)
A shake culture containing M472 Pityrosporum medium was inoculated with M. furfur and incubated with shaking at 30° C. and 200 rpm overnight.
(§1) The suspension was adjusted to an optical density measured at 600 nm of 0.1. A 96-well microtiter plate was filled with 95 μl per well of the M. furfur suspension. Then a dilution series of the peptide with a final concentration in the wells between 0 and 1000 ppm was added. To this end, 5 μl per well of peptide solution with a concentration in the range from 0 ppm to 20 000 ppm were added to the M. furfur suspension, such that final concentrations of the peptide in the wells in the range between 0 ppm and 1000 ppm were obtained.
The microtiter plate was incubated at 30° C., 600 rpm. The fungal growth was assessed by measuring the optical density at 620 nm and observed over 72 hours. The experiments were conducted at least in double determination and independently repeated at least once.

[4] = tested on: Klebsiella pneumoniae (DSM 681); type: cell-based; settings: DSM 681, 24 h
Text: Effect of peptide P18 (P18 sequence H-KWKLFKKIPKFLHLAKKF-NH2 (Bachem AG, Switzerland)) on Klebsiella pneumoniae (DSM 681) to study.
TSBY growth medium (Becton, Dickinson and Company, Sparks, USA) 17 g of pancreatin-degraded caseine 3 g of pancreatin-degraded soya 2.5 g of dextrose 5 g of sodium chloride 2.5 g of dipotassium phosphate 3 g of yeast extract (Becton, Dickinson and Company, Sparks, USA) make up to 1 liter, set pH 7
A shake culture containing TSBY medium was inoculated with K. pneumoniae and incubated with shaking at 37° C. and 200 rpm overnight.
as §1, with “K. pneumoniae” for “M. furfur”, “so as to obtain” for “such that”, “ppm.” for “ppm were obtained.”
The microtiter plate was incubated at 37° C., 600 rpm. The bacterial growth was assessed by measuring the optical density at 620 nm and observing it over 24 hours. The experiments were conducted at least in double determination and were independently repeated at least once.

Substance: H-KWKLFKKIPKFLHLAKKF-NH2 [P18, H-KWKLFKKIPKFLHLAKKF-NH2]
- Averaged number of colony forming units (CFU) [1]: 0 CFU
- Colony forming units (CFU) counted per μl ([2]; Plantacare 818 2%, P18 50 μM): 6 CFU per μl
- Colony forming units (CFU) counted per μl ([2]; Plantacare 818 2%, P18 100 μM): 0 CFU per μl
- Colony forming units (CFU) counted per μl ([2]; Plantacare 818 2%, P18 250 μM): 0 CFU per μl
- Colony forming units (CFU) counted per μl ([2]; Plantacare 818 2%, P18 500 μM): 0 CFU per μl
- Colony forming units (CFU) counted per μl ([2]; Plantacare 818 4%, P18 50 μM): 39 CFU per μl
- Colony forming units (CFU) counted per μl ([2]; Plantacare 818 4%, P18 100 μM): 5 CFU per μl
- Colony forming units (CFU) counted per μl ([2]; Plantacare 818 4%, P18 250 μM): 0 CFU per μl
- Colony forming units (CFU) counted per μl ([2]; Plantacare 818 4%, P18 500 μM): 0 CFU per μl
- Colony forming units (CFU) counted per μl ([2]; Plantacare 818 6%, P18 50 μM): 106 CFU per μl
- Colony forming units (CFU) counted per μl ([2]; Plantacare 818 6%, P18 100 μM): 10 CFU per μl
- Colony forming units (CFU) counted per μl ([2]; Plantacare 818 6%, P18 250 μM): 0 CFU per μl
- Colony forming units (CFU) counted per μl ([2]; Plantacare 818 6%, P18 500 μM): 0 CFU per μl
- Colony forming units (CFU) counted per μl ([2]; Pluracare F68 2%, P18 50 μM): 4 CFU per μl
- Colony forming units (CFU) counted per μl ([2]; Pluracare F68 2%, P18 100 μM): 1 CFU per μl
- Colony forming units (CFU) counted per μl ([2]; Pluracare F68 2%, P18 250 μM): 0 CFU per μl
- Colony forming units (CFU) counted per μl ([2]; Pluracare F68 2%, P18 500 μM): 0 CFU per μl
- Colony forming units (CFU) counted per μl ([2]; Pluracare F68 4%, P18 50 μM): 2 CFU per μl
- Colony forming units (CFU) counted per μl ([2]; Pluracare F68 4%, P18 100 μM): 0 CFU per μl
- Colony forming units (CFU) counted per μl ([2]; Pluracare F68 4%, P18 250 μM): 0 CFU per μl
- Colony forming units (CFU) counted per μl ([2]; Pluracare F68 4%, P18 500 μM): 0 CFU per μl
- Colony forming units (CFU) counted per μl ([2]; Tego Betain L7 2%, P18 50 μM): 0 CFU per μl
- Colony forming units (CFU) counted per μl ([2]; Tego Betain L7 2%, P18 100 μM): 0 CFU per μl
- Colony forming units (CFU) counted per μl ([2]; Tego Betain L7 2%, P18 250 μM): 0 CFU per μl
- Colony forming units (CFU) counted per μl ([2]; Tego Betain L7 2%, P18 500 μM): 0 CFU per μl
- Colony forming units (CFU) counted per μl ([2]; Tego Betain L7 4%, P18 50 μM): 3 CFU per μl
- Colony forming units (CFU) counted per μl ([2]; Tego Betain L7 4%, P18 100 μM): 0 CFU per μl
- Colony forming units (CFU) counted per μl ([2]; Tego Betain L7 4%, P18 250 μM): 0 CFU per μl
- Colony forming units (CFU) counted per μl ([2]; Tego Betain L7 4%, P18 500 μM): 0 CFU per μl
- Colony forming units (CFU) counted per μl ([2]; Tego Betain L7 6%, P18 50 μM): 0 CFU per μl
- Colony forming units (CFU) counted per μl ([2]; Tego Betain L7 6%, P18 100 μM): 0 CFU per μl
- Colony forming units (CFU) counted per μl ([2]; Tego Betain L7 6%, P18 250 μM): 0 CFU per μl
- Colony forming units (CFU) counted per μl ([2]; Tego Betain L7 6%, P18 500 μM): 0 CFU per μl
- Minimum inhibitory concentration [3]: 125 ppm
- Minimum inhibitory concentration [4]: 125 ppm

From patent US20120065126A1, “Pharmaceutical Compositions Containing Antifungal Peptides” (BASF SE, priority 2009, published 2012)
